In PubChem BioAssay (NCI):
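All cell lines were grown in 96-well plates and treated with compound for 48 hours. TGI is the concentration that stops growth completely.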

Legend:
Assay in all cases: NCI tumour cell line growth inhibition, 48 h
SK-MEL-2 melanoma = test system: SK-MEL-2 melanoma
A549 NSCLC = test system: A549 NSCLC
CCRF-CEM leukemia = test system: CCRF-CEM leukemia
NCI-H522 lung = test system: NCI-H522 lung
MDA-MB-435 = test system: MDA-MB-435
RXF 393 renal = test system: RXF 393 renal
T-47D breast = test system: T-47D breast
EKVX NSCLC = test system: EKVX NSCLC
MALME-3M melanoma = test system: MALME-3M melanoma
SK-MEL-5 melanoma = test system: SK-MEL-5 melanoma
UACC-62 melanoma = test system: UACC-62 melanoma
SF-268 CNS = test system: SF-268 CNS
MDA-MB-231 breast = test system: MDA-MB-231 breast
SF-295 CNS = test system: SF-295 CNS
HT29 colon = test system: HT29 colon
MOLT-4 leukemia = test system: MOLT-4 leukemia
NCI-H226 lung = test system: NCI-H226 lung
SN12C renal = test system: SN12C renal
PC-3 prostate = test system: PC-3 prostate
ACHN renal = test system: ACHN renal
U251 CNS = test system: U251 CNS
CAKI-1 renal = test system: CAKI-1 renal
SNB-19 CNS = test system: SNB-19 CNS
NCI-H460 lung = test system: NCI-H460 lung
HOP-62 NSCLC = test system: HOP-62 NSCLC
SR leukemia = test system: SR leukemia
HL-60(TB) leukemia = test system: HL-60(TB) leukemia
DU-145 prostate = test system: DU-145 prostate
HOP-92 NSCLC = test system: HOP-92 NSCLC
786-0 renal = test system: 786-0 renal
BT-549 breast = test system: BT-549 breast
K-562 leukemia = test system: K-562 leukemia
NCI-H23 lung = test system: NCI-H23 lung
NCI/ADR-RES ovarian = test system: NCI/ADR-RES ovarian
M14 melanoma = test system: M14 melanoma
OVCAR-8 ovarian = test system: OVCAR-8 ovarian
RPMI-8226 leukemia = test system: RPMI-8226 leukemia
MDA-N = test system: MDA-N
HCT-15 colon = test system: HCT-15 colon
IGROV1 ovarian = test system: IGROV1 ovarian
LOX IMVI melanoma = test system: LOX IMVI melanoma
UO-31 renal = test system: UO-31 renal
HCT-116 colon = test system: HCT-116 colon
OVCAR-3 ovarian = test system: OVCAR-3 ovarian
OVCAR-5 ovarian = test system: OVCAR-5 ovarian
A498 renal = test system: A498 renal
SNB-75 CNS = test system: SNB-75 CNS
UACC-257 melanoma = test system: UACC-257 melanoma
SK-OV-3 ovarian = test system: SK-OV-3 ovarian
SK-MEL-28 melanoma = test system: SK-MEL-28 melanoma
MCF7 breast = test system: MCF7 breast
KM12 colon = test system: KM12 colon
HCC-2998 colon = test system: HCC-2998 colon
COLO 205 colon = test system: COLO 205 colon
SW-620 colon = test system: SW-620 colon
HS 578T breast = test system: HS 578T breast
OVCAR-4 ovarian = test system: OVCAR-4 ovarian
SF-539 CNS = test system: SF-539 CNS
TK-10 renal = test system: TK-10 renal

Measured: TGI

CC1(C)[C@H]2Cc3cc(-c4cc5c(cn4)[C@@H]4C[C@H]([C@@H]5[C@@H]5c6cc(-c7cc8c(cn7)[C@@H]7C[C@H](C8)C7(C)C)ncc6[C@@H]6C[C@H]5C6(C)C)C4(C)C)ncc3[C@@H]1C2
not listed: OVCAR-4 ovarian | SF-539 CNS | TK-10 renal
> 100 µM: all other assays above

CN1C(=O)C2C=C3CCCCC3=CC2N(C)C1=O (stereo unspecified)
not listed: 786-0 renal
> 100 µM: all other assays above

CC1=NN(C(=O)CC(=O)Nc2cccc(Cl)c2)C(=O)C1N=Nc1ccc(C(=O)O)cc1 (stereo unspecified)
not listed: NCI-H226 lung | SK-OV-3 ovarian
> 100 µM: all other assays above
